Laboratory results from patent publication US6914045B2, “Glycopeptide antibiotics” (Wyeth Holdings Corporation, priority 2001, dated 2005).
In brackets after ≈: the same amount, converted by molar mass.

What was measured:
Test in all cases: in vitro antibacterial evaluation, MIC by broth dilution
Type in all cases: cell-based
Enterococcus sp. = settings: broth dilution, 18 hours at 35° C.
Experimental: (§1) Methods for in vitro Antibacterial Evaluation (Table 1)
(§2) The minimum inhibitory concentration (MIC), the lowest concentration of the antibiotic which inhibits growth of the test organism, is determined by the broth dilution method using Muller-Hinton II […] (Baltimore Biological Laboratories) following the recommendations of the National Committee for Clinical Laboratory Standards [Methods for dilution antimicrobial susceptibility tests for bacteria that grow aerobically, approved standard M7-A2, National Committee for Clinical Laboratory Standards, Villanova, Pa.].
(§3) An inoculum level of 5×10^5 CFU/mL, and a range of antibiotic concentrations (64-0.06 μg/mL) is used. […] The test organisms include a spectrum of Gram-positive bacteria comprised of Staphylococcus sp., Streptococcus sp. and Enterococcus sp. These organisms include recent clinical isolates that are resistant to methicillin, penicillin and/or vancomycin.

Staphylococcus sp. = settings: broth dilution, 18 hours at 35° C.
Experimental: as §1, §2, §3

Streptococcus sp. = settings: broth dilution, 18 hours at 35° C.
Experimental: as §1, §2, §3

Escherichia coli = settings: 18 hours at 35° C.
Method in brief: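 MIC is the lowest antibiotic concentration (tested 64-0.06 μg/mL) preventing growth of a 5×10^5 CFU/mL inoculum. Determined by broth dilution in Mueller-Hinton II medium following NCCLS standard M7-A2.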

MIC Enterococcus avium (GC 4558) (Enterococcus sp.; Enterococcus avium (GC 4558)): 8 mg/L (≈ 5.29 µM)
MIC Enterococcus faecalis (ATCC 29212) (Enterococcus sp.; Enterococcus faecalis (ATCC 29212)): 8 mg/L (≈ 5.29 µM)
MIC Enterococcus faecalis (GC 4552) (Enterococcus sp.; Enterococcus faecalis (GC 4552)): 8 mg/L (≈ 5.29 µM)
MIC Enterococcus faecalis (GC 4553) (Enterococcus sp.; Enterococcus faecalis (GC 4553)): 8 mg/L (≈ 5.29 µM)
MIC Enterococcus faecalis (GC 4554) (Enterococcus sp.; Enterococcus faecalis (GC 4554)): 16 mg/L (≈ 10.6 µM)
MIC Enterococcus faecalis (GC 6189) (Enterococcus sp.; Enterococcus faecalis (GC 6189)): 8 mg/L (≈ 5.29 µM)
MIC Enterococcus faecium (GC 2243) (Enterococcus sp.; Enterococcus faecium (GC 2243)): 4 mg/L (≈ 2.65 µM)
MIC Enterococcus faecium (GC 4556) (Enterococcus sp.; Enterococcus faecium (GC 4556)): 8 mg/L (≈ 5.29 µM)
MIC Enterococcus faecium (GC 4557) (Enterococcus sp.; Enterococcus faecium (GC 4557)): 1 mg/L (≈ 0.662 µM)
MIC Enterococcus avium (GC 4558) (Enterococcus sp.): 8 mg/L (≈ 5.29 µM)
MIC Enterococcus faecalis (ATCC 29212) (Enterococcus sp.): 8 mg/L (≈ 5.29 µM)
MIC Enterococcus faecalis (GC 2242) (Enterococcus sp.): 8 mg/L (≈ 5.29 µM)
MIC Enterococcus faecalis (GC 2691) (Enterococcus sp.): 8 mg/L (≈ 5.29 µM)
MIC Enterococcus faecalis (GC 3059) (Enterococcus sp.): 8 mg/L (≈ 5.29 µM)
MIC Enterococcus faecalis (GC 4552) (Enterococcus sp.): 8 mg/L (≈ 5.29 µM)
MIC Enterococcus faecalis (GC 4553) (Enterococcus sp.): 8 mg/L (≈ 5.29 µM)
MIC Enterococcus faecalis (GC 4554) (Enterococcus sp.): 16 mg/L (≈ 10.6 µM)
MIC Enterococcus faecalis (GC 6189) (Enterococcus sp.): 8 mg/L (≈ 5.29 µM)
MIC Enterococcus faecium (GC 2243) (Enterococcus sp.): 4 mg/L (≈ 2.65 µM)
MIC Enterococcus faecium (GC 4556) (Enterococcus sp.): 8 mg/L (≈ 5.29 µM)
MIC Enterococcus faecium (GC 4557) (Enterococcus sp.): 1 mg/L (≈ 0.662 µM)
MIC Enterococcus faecalis (GC 2242) (Enterococcus sp.; strain GC 2242): 8 mg/L (≈ 5.29 µM)
MIC Enterococcus faecalis (GC 2691) (Enterococcus sp.; strain GC 2691): 8 mg/L (≈ 5.29 µM)
MIC Enterococcus faecalis (GC 3059) (Enterococcus sp.; strain GC 3059): 8 mg/L (≈ 5.29 µM)
MIC Coagulase Negative Staphylococcus (GC 4547) (Staphylococcus sp.): 4 mg/L (≈ 2.65 µM)
MIC Coagulase Negative Staphylococcus (GC 4548) (Staphylococcus sp.): 4 mg/L (≈ 2.65 µM)
MIC Coagulase Negative Staphylococcus (GC 4549) (Staphylococcus sp.): 4 mg/L (≈ 2.65 µM)
MIC Coagulase Negative Staphylococcus (GC 4551) (Staphylococcus sp.): 4 mg/L (≈ 2.65 µM)
MIC Coagulase Negative Staphylococcus (GC 6257) (Staphylococcus sp.): 2 mg/L (≈ 1.32 µM)
MIC Staphylococcus aureus-SMITH (GC 4543) (Staphylococcus sp.): 4 mg/L (≈ 2.65 µM)
MIC Staphylococcus aureus (ATCC 29213) (Staphylococcus sp.; strain ATCC 29213): 8 mg/L (≈ 5.29 µM)
MIC Staphylococcus aureus (GC 1131) (Staphylococcus sp.; strain GC 1131): 8 mg/L (≈ 5.29 µM)
MIC Staphylococcus aureus (GC 3051) (Staphylococcus sp.; strain GC 3051): 8 mg/L (≈ 5.29 µM)
MIC Staphylococcus aureus (GC 3053) (Staphylococcus sp.; strain GC 3053): 8 mg/L (≈ 5.29 µM)
MIC Staphylococcus aureus (GC 4541) (Staphylococcus sp.; strain GC 4541): 4 mg/L (≈ 2.65 µM)
MIC Staphylococcus aureus (GC 4542) (Staphylococcus sp.; strain GC 4542): 8 mg/L (≈ 5.29 µM)
MIC Staphylococcus aureus-SMITH (GC 4543) (Staphylococcus sp.; strain GC 4543): 4 mg/L (≈ 2.65 µM)
MIC Staphylococcus aureus (GC 4544) (Staphylococcus sp.; strain GC 4544): 8 mg/L (≈ 5.29 µM)
MIC Staphylococcus aureus (GC 4545) (Staphylococcus sp.; strain GC 4545): 8 mg/L (≈ 5.29 µM)
MIC Coagulase Negative Staphylococcus (GC 4547) (Staphylococcus sp.; strain GC 4547): 4 mg/L (≈ 2.65 µM)
MIC Coagulase Negative Staphylococcus (GC 4548) (Staphylococcus sp.; strain GC 4548): 4 mg/L (≈ 2.65 µM)
MIC Coagulase Negative Staphylococcus (GC 4549) (Staphylococcus sp.; strain GC 4549): 4 mg/L (≈ 2.65 µM)
MIC Coagulase Negative Staphylococcus (GC 4551) (Staphylococcus sp.; strain GC 4551): 4 mg/L (≈ 2.65 µM)
MIC Coagulase Negative Staphylococcus (GC 6257) (Staphylococcus sp.; strain GC 6257): 2 mg/L (≈ 1.32 µM)
MIC Streptococcus agalactiae (GC 4564) (Streptococcus sp.): 1 mg/L (≈ 0.662 µM)
MIC Streptococcus pneumoniae (ATCC 6301) (Streptococcus sp.): 1 mg/L (≈ 0.662 µM)
MIC Streptococcus pneumoniae (GC 1894) (Streptococcus sp.): 0.12 mg/L (≈ 0.0794 µM)
MIC Streptococcus pneumoniae (GC 4565) (Streptococcus sp.): 1 mg/L (≈ 0.662 µM)
MIC Streptococcus pyogenes (GC 4563) (Streptococcus sp.): 0.5 mg/L (≈ 0.331 µM)
MIC Streptococcus pneumoniae (ATCC 6301) (Streptococcus sp.; strain ATCC 6301): 1 mg/L (≈ 0.662 µM)
MIC Streptococcus pneumoniae (GC 1894) (Streptococcus sp.; strain GC 1894): 0.12 mg/L (≈ 0.0794 µM)
MIC Streptococcus pyogenes (GC 4563) (Streptococcus sp.; strain GC 4563): 0.5 mg/L (≈ 0.331 µM)
MIC Streptococcus agalactiae (GC 4564) (Streptococcus sp.; strain GC 4564): 1 mg/L (≈ 0.662 µM)
MIC Streptococcus pneumoniae (GC 4565) (Streptococcus sp.; strain GC 4565): 1 mg/L (≈ 0.662 µM)
MIC Escherichia coli (ATCC 25922) (Escherichia coli): >64 mg/L
MIC Escherichia coli (GC 4559) (Escherichia coli): 64 mg/L (≈ 42.3 µM)
MIC Escherichia coli (GC 4560) (Escherichia coli): 4 mg/L (≈ 2.65 µM)
SMILES: CCCCCCN=C1NCC(C(O)C2NC(=O)C(C(O)C3CNC(=N)N3)NC(=O)C(Cc3ccc(OC4OC(CO)C(OC5OC6COC7(OC6C(O)C5O)C5CC6CC(C5)CC7C6)C(O)C4O)cc3)NC(=O)C(C(C)c3ccccc3)NC(=O)CNC(=O)C(CO)NC2=O)N1C1OC(CO)C(O)C(O)C1O (centres unmarked) [Example 84]
MIC Staphylococcus haemolyticus (GC 4546) (Staphylococcus sp.): 4 mg/L (≈ 2.65 µM)
MIC Staphylococcus haemolyticus (GC 4546) (Staphylococcus sp.; strain GC 4546): 4 mg/L (≈ 2.65 µM)
